According to PubChem BioAssay AID463074 (Broad Institute, 2010):
The source made the active and inactive calls.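 How the source made its calls: active means AC50 no more than tenfold above the top dose tested, or full inhibition at every dose with a flat fit (cut at about 19 µM in these data); inconclusive means flat curve fit with inhibition between 30% and 70%, or poor fit; inactive means AC50 more than tenfold above the top dose tested.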

What follows are compounds tested on HMLE_sh_eGFP viability, CellTiter-Glo luminescence, 72 h (assay: cytotoxicity in HMLE control line with eGFP shRNA, dose response, counter-screen for HMLE_sh_ECad selective toxicity project, cell-based, HMLE_sh_eGFP, luminescence (AID 463074);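 further: counterscreen control line to flag general toxicity for the HMLE_sh_ECad screen; potency for loss of viability as luminescence drops below DMSO wells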).
Compound `CC(c1ccccc1)N1C(=O)/C(=C/c2ccncc2)SC1=S` (centres undefined) has an AC50 of 17.2 µM. `CCCC(=O)NC(c1ccc2c(c1)OCO2)c1cc(Cl)c2cccnc2c1O` (centres undefined) was tested, and the AC50 was 3.1 µM. `COc1ccccc1/C=C1\S/C(=N/NC(=O)c2cccc(Br)c2)NC1=O` was tested, and the AC50 was 8.09 µM. In the case of `C=C(C)COc1ccc(-c2nc(N)ncc2-c2ccc(Br)cc2)c(O)c1`, the AC50 is reported as 7.37 µM. `CCc1c(C2(O)CCCCC2)[nH]c2cc(C(F)(F)F)ccc12` was tested, and the AC50 was 3.15 µM. With `CC1=C(C(=O)OC2CCCC2)C(c2coc3ccccc3c2=O)C2=C(CC(C)(C)CC2=O)N1` (centres undefined) the AC50 was > 19.5 µM (inactive). In the case of `CCN1CCN(Cc2ccc(NC(=O)c3ccc(C)c(NC(=O)c4cc(-c5ccc(Br)cc5)n[nH]4)c3)cc2C(F)(F)F)CC1`, the AC50 is reported as 11.6 µM. Compound `CCCCOc1ccc(S(=O)(=O)N2CCN(c3ccc(N4CCN(CC)CC4)nn3)CC2)cc1` has an AC50 of 0.46 µM. Work on `N#CC1=C(SCC(=O)c2ccc(Br)cc2)NC2=C(C(=O)CCC2)C1c1ccco1` (centres undefined) yielded an AC50 of 2.21 µM. `CC(=O)Oc1ccc(-c2csc(Nc3cccc(C)n3)n2)cc1` was tested, and the AC50 was 8.79 µM. `Cc1cc(S(=O)(=O)c2ccc([N+](=O)[O-])cn2)ccc1Br` was tested, and the AC50 was 3.99 µM. `CCOC(=O)c1cnc(-n2nc(C)cc2C)nc1NNc1cc(C)nc(-c2ccccc2)n1` was tested, and the AC50 was 2.97 µM. `O=C(CN(c1ccc(Cl)cc1)S(=O)(=O)c1ccc(Cl)c([N+](=O)[O-])c1)NCCc1ccc(F)cc1` gave an AC50 of 3.81 µM. `CCN(CC)CCNC(=O)c1[nH]c2ccc(OCc3ccccc3)cc2c1C` was tested, and the AC50 was 1.81 µM. `CCCCCCOc1ccc(/C(C)=N/NC2=NCCN2)cc1` gave an AC50 of 3.69 µM. With `CN(CC(=O)Nc1ccc(Cl)c(Cl)c1)CC(=O)Nc1ccc2c(c1)OCO2` the AC50 was 17.2 µM. For `CC(C)C(=O)NC(c1ccccc1)c1cc([N+](=O)[O-])c2cccnc2c1O` (centres undefined), the AC50 was 5.91 µM. `CCCOc1c(OC)cccc1C1CC(=O)Nc2cc3c(cc21)OCCO3` (centres undefined) gave an AC50 of 2.95 µM. In the case of `CCCCn1c(C2CCCCC2)nc2cc3[nH]c(=O)c(C(C)C)nc3cc21`, the AC50 is reported as 1.52 µM. With `O=C(CN1CCCC1)Nc1ccc(Cl)cc1C(=O)c1ccccc1` the AC50 was 15.3 µM. With `Cc1[nH]nc2c1C(c1ccc(-c3ccc(Cl)cc3)o1)C(C#N)=C(N)O2` (centres undefined) the AC50 was 7.25 µM. With `COc1ccc(Cn2nnnc2C(C(C)C)N(Cc2ccco2)Cc2cccs2)cc1` (centres undefined) the AC50 was > 19.5 µM (inactive). `Nc1ccccc1N=Cc1ccc(-c2cccc(Cl)c2)o1` showed an AC50 of 4.22 µM. Work on `CCc1ccc(-c2cc3c(=O)n(CC(=O)NCCN4CCCCC4C)nc(C)n3n2)cc1` (centres undefined) yielded an AC50 of 5.23 µM. For `O=[N+]([O-])c1cccnc1N1CCC(c2cc(-c3ccc(Cl)cc3Cl)n[nH]2)CC1`, the AC50 was 4.6 µM. `CCOC(=O)C(C(=O)OCC)C(Nc1ccc(Br)cc1)c1ccccc1` (centres undefined) gave an AC50 of 19.8 µM. `COc1ccccc1CNC(=S)Nc1ccc2nc(N3CCN(C)CC3)cc(C)c2c1` gave an AC50 of 0.427 µM. With `Cn1ncc2c(Nc3cccc(Cl)c3)nc(Nc3cccc(Cl)c3)nc21` the AC50 was 3.71 µM. With `O=C(N[C@H]1C/C=C\C[C@@H](CC(=O)N(CCO)Cc2ccccc2)C(=O)NC[C@H](c2ccccc2)OC1=O)OCC1c2ccccc2-c2ccccc21` the AC50 was 2.41 µM. Work on `c1cc(SC2CCCCC2)cc(-c2nc3cnccn3c2NC2CCCCC2)c1` yielded an AC50 of 1.78 µM. For `O=c1cc(N2CCCCC2)c(-c2ccccc2)nn1Cc1ccc(Cl)cc1`, the AC50 was 3.77 µM. With `Cn1nnnc1Sc1ncnc2scc(-c3ccc(Cl)cc3)c12` the AC50 was 3.3 µM. Work on `O=C(CCc1ccc(Oc2cc([N+](=O)[O-])cc([N+](=O)[O-])c2)cc1)N1CCCCCC1` yielded an AC50 of 8.85 µM. Compound `c1ccc(-c2cc3c(NCC4COc5ccccc5O4)ncnc3s2)cc1` (centres undefined) has an AC50 of 4.99 µM. `C[C@]12CC[C@H](O)C[C@H]1CC[C@@H]1C2CC[C@]2(C)[C@@H](C3=CC(=O)OC3)[C@@H](O)C[C@]12O` (some centres undefined) gave an AC50 of 1.55 µM. With `O=c1cc(-c2ccc(O)cc2)oc2ccc3ccccc3c12` the AC50 was 7.19 µM. For `O=C(Nc1cccc(Cl)c1)Nc1csc([N+](=O)[O-])c1`, the AC50 was 5.64 µM. `COc1ccc(NC(=O)c2cc(-c3ccccc3OC)on2)cc1` was tested, and the AC50 was 0.983 µM. With `O=C1C=C(c2ccc(Cl)c(C(F)(F)F)c2)C[C@@H](c2ccc3c(c2)OCO3)C1` the AC50 was 6.37 µM. `CC(C)(C)OC(=O)[C@H](Cc1ccccc1)NC(=O)c1[nH]cnc1C(=O)Nc1cccc(Cl)c1` was tested, and the AC50 was 3.93 µM. With `CCCOc1ccc(-c2nc(N3CCN(CC)CC3)c3ccccc3n2)cc1` the AC50 was 6.44 µM. In the case of `CC[C@@]1(O)C(=O)OCc2c1cc1n(c2=O)Cc2cc3c(NC(=O)CN)cccc3nc2-1`, the AC50 is reported as 2.56 µM. For `CC(=NCc1cccc(Cl)c1)c1nc(-c2ccco2)oc1O`, the AC50 was 0.554 µM. Compound `S=C1NC[C@H](Cc2ccccc2)N1CCCCC1CCCCC1` has an AC50 of 4.19 µM. For `Cc1cc(C)cc(NC(=O)Nc2ccc(NC(=O)c3ccccc3O)cc2)c1`, the AC50 was > 19.5 µM (inactive). In the case of `Cc1cc(C)cc(N2C(=O)NC(=O)/C(=C/c3cccn3-c3ccc(Cl)cc3)C2=O)c1`, the AC50 is reported as 2.84 µM. Work on `CC1(C)CC[C@]2(C(=O)O)CC[C@]3(C)C(=CC[C@@H]4[C@@]5(C)CC[C@H](O[C@@H]6O[C@H](C(=O)O)[C@@H](O)[C@H](O[C@@H]7OC[C@H](O)[C@H](O)[C@H]7O)[C@H]6O)C(C)(C)[C@@H]5CC[C@]43C)[C@@H]2C1` yielded an AC50 of 5.14 µM. `O=c1c2c3c(sc2ncn1/N=C/c1ccc([N+](=O)[O-])o1)CCCC3` showed an AC50 of 6.48 µM. `Cc1ccc2nc(Cl)c3cc(C(=O)N(CCN(C)C)Cc4ccco4)sc3c2c1` was tested, and the AC50 was 3.53 µM. `NS(=O)(=O)c1ccc(N/N=C/c2cn(-c3ccccc3)nc2-c2cccs2)c([N+](=O)[O-])c1` gave an AC50 of 1.9 µM. With `CC(C)C1C(c2ccccc2)N(C)C(c2ccccc2)CC1(O)c1ccccc1` (centres undefined) the AC50 was 3.35 µM. `Cc1ccccc1CSc1ccc(-c2ccc3c(c2)OCO3)nn1` was tested, and the AC50 was 7.5 µM. `O=C(NNc1ccc(Cl)cc1)c1cccs1` showed an AC50 of 1.58 µM. `O=C1/C(=C\c2cccnc2)CN(Cc2ccccc2)C/C1=C\c1cccnc1` showed an AC50 of 3.9 µM. `CCCc1ccc(C(=O)NNc2ccc(F)cc2)cc1` was tested, and the AC50 was 1.99 µM. In the case of `CCN(CC)S(=O)(=O)c1cccc(C(=O)N/N=C/c2cccc(O)c2O)c1`, the AC50 is reported as 7.97 µM. `COc1ccc(-n2nc3c(N4CCC(C(=O)NCCc5ccccc5C)CC4)nnc(C)c3c2C)cc1` was tested, and the AC50 was 4.85 µM. With `CCCC(=O)NC(=S)Nc1cccc(Cl)c1N1CCCC1` the AC50 was 4.25 µM. `COc1ccc(-c2cn[nH]c2-c2ccc(OCc3ccccc3)cc2O)cc1` gave an AC50 of 7.02 µM. In the case of `Cn1nc(-c2ccc(Cl)cc2)c2cc(C(=O)NCCCN3CCOCC3)sc21`, the AC50 is reported as 5.94 µM. Compound `C=CCNc1ncnc2c1ncn2C1OC(CO)C(O)C1O` (centres undefined) has an AC50 of 4.39 µM. `Cc1cccc(-c2cc3nc4c(c(NCc5ccco5)n3n2)CCCC4)c1` showed an AC50 of 7.25 µM. `CC/C(=C\C1CCCCC1)C(NP(=O)(c1ccccc1)c1ccccc1)c1ccccc1` (centres undefined) gave an AC50 of 3.49 µM. With `COc1ccc(C(c2c[nH]c3ccccc23)c2c[nH]c3ccccc23)cc1O` the AC50 was 4.62 µM. In the case of `N#CC1=C(N)N2C(=C(C#N)C1c1ccc(Br)cc1)Nc1ccccc12` (centres undefined), the AC50 is reported as 2.99 µM. Work on `Cc1ccc(-c2nnc(Sc3nc4ccccc4o3)c3ccccc23)cc1` yielded an AC50 of 6.74 µM. Compound `CCN(Cc1ccccc1)c1ccc(/C=N/NC(=S)NC(C)C)cc1` has an AC50 of 4.6 µM. `COc1cc(/C=C/c2[nH]c(=O)[nH]c(=O)c2[N+](=O)[O-])ccc1OCCC(C)C` was tested, and the AC50 was 7.14 µM. `Cc1ccc2c(c1)c1c(n2CC(O)CNC2CCCCC2)CCCC1` (centres undefined) showed an AC50 of 8.31 µM. Work on `CCC(C)NCCOc1ccc(C(C)(C)c2ccccc2)cc1` (centres undefined) yielded an AC50 of 5.92 µM. `COc1ccc(OC)c(Nc2c3ccccc3nc3ccccc23)c1` gave an AC50 of 2.7 µM. With `O=C(NC(=S)Nc1ccc(N2CCCCC2)c(Cl)c1)c1cccs1` the AC50 was 8.62 µM. `CC(C)C[C@@H](CO)N(Cc1ccccc1)S(=O)(=O)N(Cc1ccccc1)[C@H](CO)CC(C)C` gave an AC50 of 7.24 µM. Work on `O=C(/C=C/c1ccccc1)NC(NC(=S)Nc1cc(Cl)ccc1Cl)C(Cl)(Cl)Cl` (centres undefined) yielded an AC50 of 6.28 µM. `COc1cc(CNCCc2ccccc2)cc(Cl)c1OCc1ccccc1` gave an AC50 of 4.84 µM. `C/C(=N\Nc1ccccc1)c1c(O)n(Cc2ccccc2)c(=O)[nH]c1=O` showed an AC50 of 1.9 µM. `CCc1cc2cccc(C)c2nc1SCC(=O)c1ccc(NC(C)=O)cc1` gave an AC50 of 4.62 µM. `Cc1ccc2sc(N(CCCN(C)C)C(=O)c3ccc(S(=O)(=O)N4CCCCCC4)cc3)nc2c1C` gave an AC50 of 7.04 µM. `COc1ccccc1-c1sc2cc3c(cc2c1C#Cc1cncn1C)OCO3` gave an AC50 of 5.73 µM. Work on `Cc1ccc(C(=O)CSc2nc(-c3ccccc3)ccc2C#N)cc1` yielded an AC50 of 2.47 µM. For `COc1ccc2sc(-c3ccccc3OC)c(-c3ccc(OCCN4CCCC4)cc3)c2c1`, the AC50 was 3.74 µM. `Cc1cc(C)cc(NC(=O)CCc2nc3sc4c(c3c(=O)[nH]2)CCCC4)c1` gave an AC50 of 5.26 µM. Compound `O=C(NC(=S)NCCc1ccccc1)C1CCCCC1` has an AC50 of 18.4 µM. `O=C(/C=C/c1ccc2c(c1)OCO2)NCCSCc1ccc(Cl)cc1` was tested, and the AC50 was 0.957 µM. For `NC(=O)c1cc([N+](=O)[O-])ccc1NCc1ccc(O)cc1`, the AC50 was 3.1 µM. Work on `COc1cccc(/C=N/Nc2ncnc(Cl)c2N)c1O` yielded an AC50 of 3.29 µM. `O=C(N/N=C/c1ccc[nH]1)c1sc2ccccc2c1Cl` gave an AC50 of 13.4 µM. Work on `COc1ccc(N/N=C/c2c(O)n(-c3ccc(C)c(C)c3)c(=O)[nH]c2=O)cc1` yielded an AC50 of 1.12 µM. In the case of `Cc1cc(NC(=O)/C=C/c2ccc(Cl)cc2)no1`, the AC50 is reported as > 19.5 µM (inactive). `CC(=O)C12CC(C)=C(C)CC1CC1C3CCC4=CC(=O)CCC4(C)C3CCC12C` (centres undefined) was tested, and the AC50 was 6.65 µM. `COc1cc(-c2nc(-c3ccc(NC(=O)c4ccc(Br)o4)cc3)no2)cc(OC)c1OC` gave an AC50 of 3.5 µM. In the case of `OCCCNc1nc(-c2ccccc2)c2cc(Br)ccc2n1`, the AC50 is reported as > 19.5 µM (inactive). Compound `CN(/N=C/c1cc(Br)cc(Br)c1O)c1cccc(C(F)(F)F)n1` has an AC50 of 12.7 µM. `N#CC1=C(SCC(=O)c2ccc(Cl)cc2)NC2=C(C(=O)CCC2)C1c1ccco1` (centres undefined) gave an AC50 of 3.57 µM. `CC[C@H](CO)Nc1nc(Nc2cccc(Cl)c2)c2ncn(C(C)C)c2n1` showed an AC50 of 6.74 µM. Work on `COc1ccc(C)cc1N1C(=N)/C(=C2/Nc3ccccc3S2)C(c2ccccc2)C1=O` (centres undefined) yielded an AC50 of 17.8 µM. With `COc1ccc(C=C2C=C(C(C)(C)C)C(=O)C(C(C)(C)C)=C2)cc1OC` the AC50 was 3.47 µM. For `CC(C)N(CCC(=O)c1ccc2ccccc2c1)Cc1ccccc1`, the AC50 was 9.86 µM. `c1ccc(N(c2ccccc2)c2nc(N3CCCC3)nc(-n3ccnc3)n2)cc1` gave an AC50 of 6.28 µM. `CC1=[N+](C)c2ccc3ccccc3c2C1(C)C` was tested, and the AC50 was > 19.5 µM (inactive). With `CC(C)(C)OC(=O)NCCc1nnc(S(=O)(=O)Cc2ccc(Cl)cc2Cl)o1` the AC50 was 5.73 µM. In the case of `Cn1c(-c2ccccc2)cnc1NCc1ccc(-c2ccccc2)cc1`, the AC50 is reported as 0.683 µM. `COc1cc(OC)cc(-c2sc3ccc(OC)cc3c2C#CC2(N)CCCCC2)c1` showed an AC50 of 3.23 µM. `COc1ccc(CCn2c(C3CCCCC3)nc3c(c(=O)c4ccccc4n3C)c2=O)cc1` gave an AC50 of 5.17 µM.
